# Reference: ChEMBL document CHEMBL1129317, “Novel selective and partial agonists of 5-HT3 receptors. Part 1. Synthesis and biological evaluation of piperazinopyrrolothienopyrazines” (J Med Chem, 1996)
# How the values were obtained:
# [1] = biological target: 5-hydroxytryptamine receptor 1D (Sus scrofa, UniProt P79400); experiment: Binding affinity for 5-hydroxytryptamine 1D receptor
# [2] = biological target: 5-hydroxytryptamine receptor 1B (Rattus norvegicus, UniProt P28564); experiment: Binding affinity for 5-hydroxytryptamine 1B receptor
# [3] = biological target: T1, 5-hydroxytryptamine receptor 2C (Homo sapiens, UniProt P28335); experiment: Binding affinity towards 5-hydroxytryptamine 2C receptor
# T1 sequence (P28335 whole entry): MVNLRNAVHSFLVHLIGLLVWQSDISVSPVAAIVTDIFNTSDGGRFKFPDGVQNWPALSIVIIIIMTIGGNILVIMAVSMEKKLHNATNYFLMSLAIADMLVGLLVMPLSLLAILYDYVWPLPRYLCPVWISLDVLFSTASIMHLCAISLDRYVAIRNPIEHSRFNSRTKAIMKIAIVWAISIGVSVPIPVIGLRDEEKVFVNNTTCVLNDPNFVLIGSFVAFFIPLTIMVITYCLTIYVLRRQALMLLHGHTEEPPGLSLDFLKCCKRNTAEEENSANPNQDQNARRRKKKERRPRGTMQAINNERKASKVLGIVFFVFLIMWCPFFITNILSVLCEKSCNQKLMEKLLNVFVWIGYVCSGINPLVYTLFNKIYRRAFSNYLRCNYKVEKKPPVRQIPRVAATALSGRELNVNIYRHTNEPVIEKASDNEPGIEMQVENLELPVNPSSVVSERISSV
# [4] = biological target: T2, 5-hydroxytryptamine receptor 1A (Homo sapiens, UniProt P08908); experiment: Binding affinity for 5-hydroxytryptamine 1A receptor
# T2 sequence (P08908 whole entry): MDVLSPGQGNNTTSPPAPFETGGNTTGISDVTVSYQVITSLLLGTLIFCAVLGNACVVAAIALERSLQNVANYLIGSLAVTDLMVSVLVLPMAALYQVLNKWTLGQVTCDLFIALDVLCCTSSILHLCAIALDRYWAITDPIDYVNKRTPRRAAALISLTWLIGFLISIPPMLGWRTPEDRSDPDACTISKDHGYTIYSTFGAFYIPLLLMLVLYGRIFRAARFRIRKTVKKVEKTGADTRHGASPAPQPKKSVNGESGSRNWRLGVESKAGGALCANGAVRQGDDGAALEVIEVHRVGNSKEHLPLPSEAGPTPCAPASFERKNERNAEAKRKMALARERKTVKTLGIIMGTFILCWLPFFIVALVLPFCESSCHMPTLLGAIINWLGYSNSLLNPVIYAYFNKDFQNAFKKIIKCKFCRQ
# [5] = biological target: 5-hydroxytryptamine receptor 2A (Bos taurus, UniProt Q75Z89); experiment: Binding affinity towards 5-hydroxytryptamine 2A receptor
# [6] = biological target: T3, Serotonin 3 (5-HT3) receptor (Rattus norvegicus) (UniProt P35563+Q9JJ16); experiment: Antagonistic activity of compound towards 5-hydroxytryptamine 3 receptor in Von Bezold-Jarisch reflex in rats at 60(ug/kg), evaluated as percent inhibition of bradycardia; assay type: functional
# NG108-15 [7] = experiment: (§1) In vitro effective concentration against [14C]guanidinium uptake into NG 108-15 cells; assay type: functional; details: Murinae, read-out: ED50 (the source's name)
# [8] = biological target: T3, Serotonin 3 (5-HT3) receptor (Rattus norvegicus); experiment: Agonistic activity of compound towards 5-hydroxytryptamine 3 receptorr in Von Bezold-Jarisch Reflex in rats at 100 (ug/kg), evaluated as change in heart rate; assay type: functional
# [9] = biological target: T3, Serotonin 3 (5-HT3) receptor (Rattus norvegicus); experiment: Agonistic activity of compound towards 5-hydroxytryptamine 3 receptor in Von Bezold-Jarisch Reflex in rats at 60 (ug/kg), evaluated as change in heart rate; assay type: functional
# [10] = biological target: T4, Serotonin 3 (5-HT3) receptor (Rattus norvegicus, UniProt P35563+Q9JJ16); experiment: Binding affinity towards 5-hydroxytryptamine 3 receptor; assay type: protein-complex assay
# T4 sequence (P35563 whole entry): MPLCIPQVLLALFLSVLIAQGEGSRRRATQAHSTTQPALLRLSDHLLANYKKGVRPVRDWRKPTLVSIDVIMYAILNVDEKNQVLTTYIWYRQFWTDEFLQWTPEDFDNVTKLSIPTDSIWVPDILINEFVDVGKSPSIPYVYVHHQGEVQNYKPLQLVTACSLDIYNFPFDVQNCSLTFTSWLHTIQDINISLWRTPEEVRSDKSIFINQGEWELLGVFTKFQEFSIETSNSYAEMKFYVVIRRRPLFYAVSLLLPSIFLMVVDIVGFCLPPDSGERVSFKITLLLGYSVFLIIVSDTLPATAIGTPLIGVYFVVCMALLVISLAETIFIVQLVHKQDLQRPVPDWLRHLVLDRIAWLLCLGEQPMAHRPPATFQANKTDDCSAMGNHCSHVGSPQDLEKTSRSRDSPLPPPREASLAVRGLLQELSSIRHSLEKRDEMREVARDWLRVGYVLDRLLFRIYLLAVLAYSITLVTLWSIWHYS
# T4 sequence (Q9JJ16 whole entry): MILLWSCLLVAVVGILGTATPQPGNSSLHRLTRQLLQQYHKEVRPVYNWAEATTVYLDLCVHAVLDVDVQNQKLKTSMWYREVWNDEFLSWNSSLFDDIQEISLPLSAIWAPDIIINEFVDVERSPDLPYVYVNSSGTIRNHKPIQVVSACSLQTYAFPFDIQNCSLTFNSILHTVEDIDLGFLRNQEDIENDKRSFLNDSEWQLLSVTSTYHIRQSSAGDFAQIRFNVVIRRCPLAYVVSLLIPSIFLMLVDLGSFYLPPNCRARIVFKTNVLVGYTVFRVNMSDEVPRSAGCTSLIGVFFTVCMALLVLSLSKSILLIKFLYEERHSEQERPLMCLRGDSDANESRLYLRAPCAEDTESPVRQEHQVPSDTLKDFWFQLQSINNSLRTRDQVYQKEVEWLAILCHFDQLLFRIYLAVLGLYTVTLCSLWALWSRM
# [11] = biological target: T3, Serotonin 3 (5-HT3) receptor (Rattus norvegicus); experiment: Antagonistic activity of compound towards 5-hydroxytryptamine 3 receptor in Von Bezold-Jarisch Reflex in rats at 60 (ug/kg), evaluated as percent inhibition of bradycardia; assay type: functional
# NG108-15 [12] = experiment: as §1; assay type: functional, cell-based; details: Murinae
# [13] = biological target: T3, Serotonin 3 (5-HT3) receptor (Rattus norvegicus); experiment: Agonistic activity of compound towards 5-hydroxytryptamine 3 receptor in Von Bezold-Jarisch Reflex in rats at 100 (ug/kg), evaluated as change in heart rate; assay type: functional
# [14] = biological target: T3, Serotonin 3 (5-HT3) receptor (Rattus norvegicus); experiment: Antagonistic activity of compound towards 5-hydroxytryptamine 3 receptor in Von Bezold-Jarisch Reflex in rats at 100(ug/kg), evaluated as percent inhibition of bradycardia; assay type: functional
# [15] = biological target: T3, Serotonin 3 (5-HT3) receptor (Rattus norvegicus); experiment: 5-Hydroxy tryptamine 3 receptor showing agonist activity (in vivo) in Von Bezold-Jarisch Reflex in rats at 120 (ug/kg), evaluated as change in heart rate; assay type: functional, organism-based
# Sequence of 5-hydroxytryptamine receptor 1B (P28564 whole entry): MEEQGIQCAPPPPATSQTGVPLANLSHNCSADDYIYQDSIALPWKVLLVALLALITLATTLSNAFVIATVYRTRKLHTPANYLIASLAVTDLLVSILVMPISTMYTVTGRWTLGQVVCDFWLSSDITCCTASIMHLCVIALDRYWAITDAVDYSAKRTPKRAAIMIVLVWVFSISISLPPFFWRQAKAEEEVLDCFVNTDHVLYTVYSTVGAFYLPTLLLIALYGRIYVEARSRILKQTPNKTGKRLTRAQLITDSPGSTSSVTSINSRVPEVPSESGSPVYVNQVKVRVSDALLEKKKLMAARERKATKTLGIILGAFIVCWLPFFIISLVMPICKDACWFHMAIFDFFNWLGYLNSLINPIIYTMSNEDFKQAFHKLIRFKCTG
# Sequence of 5-hydroxytryptamine receptor 2A (Q75Z89 whole entry): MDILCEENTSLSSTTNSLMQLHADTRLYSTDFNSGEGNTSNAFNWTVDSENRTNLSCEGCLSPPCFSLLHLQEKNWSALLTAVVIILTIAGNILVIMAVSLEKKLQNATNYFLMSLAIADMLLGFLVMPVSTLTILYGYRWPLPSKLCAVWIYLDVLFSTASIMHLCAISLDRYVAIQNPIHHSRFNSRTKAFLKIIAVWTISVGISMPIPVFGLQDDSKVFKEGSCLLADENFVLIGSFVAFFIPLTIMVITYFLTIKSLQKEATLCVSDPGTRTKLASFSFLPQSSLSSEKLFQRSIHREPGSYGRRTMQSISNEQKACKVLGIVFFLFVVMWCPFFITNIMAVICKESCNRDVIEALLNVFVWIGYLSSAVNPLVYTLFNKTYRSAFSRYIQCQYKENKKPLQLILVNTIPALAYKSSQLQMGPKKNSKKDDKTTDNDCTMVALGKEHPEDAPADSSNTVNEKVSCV
# Sequence of 5-hydroxytryptamine receptor 1D (P79400 whole entry): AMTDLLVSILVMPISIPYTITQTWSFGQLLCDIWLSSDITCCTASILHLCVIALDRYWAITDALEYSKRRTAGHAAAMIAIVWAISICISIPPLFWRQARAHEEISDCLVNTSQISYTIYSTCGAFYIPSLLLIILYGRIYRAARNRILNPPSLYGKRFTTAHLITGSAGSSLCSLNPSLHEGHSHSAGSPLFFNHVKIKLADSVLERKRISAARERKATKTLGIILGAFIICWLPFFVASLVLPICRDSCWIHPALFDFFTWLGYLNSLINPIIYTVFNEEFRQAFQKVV
IC50 [1] [µM],IC50 [2] [µM],IC50 [3] [µM],IC50 [4] [µM],IC50 [5] [µM],Change [6] [%],EC50 (NG108-15 [7]) [µM],IC50 [10] [µM],Change [11] [%],EC50 (NG108-15 [12]) [µM],Change [14] [%],SMILES,Change [8] [%],Change [9] [%],Change [13] [%],Change [15] [%]
0.468,0.417,0.759,0.0676,2.34,67,0.004,0.000912,–,–,–,C=CCN1CCN(c2nc3sccc3n3cccc23)CC1,72,30,–,–
> 100,1580,–,14.5,38,–,–,0.00117,34,0.005,–,Fc1ccc(CN2CCN(c3nc4sccc4n4cccc34)CC2)cc1,–,0,25,–
93.3,91.2,3.72,5.89,19.5,–,–,0.00457,–,0.03,67,c1ccc(CN2CCN(c3nc4sccc4n4cccc34)CC2)cc1,–,–,48,–
537,> 100,1000,389,> 100,–,–,39.8,–,–,–,c1ccc(CN2CCN(c3nc4sc(-c5ccccc5)cc4n4cccc34)CC2)cc1,–,–,–,–
> 100,302,102,> 100,372,–,–,245,–,–,–,Clc1ccc(N2CCN(c3nc4ccsc4n4cccc34)CC2)cc1,–,–,–,–
> 100,> 100,468,> 100,339,–,–,589,–,–,–,c1ccc(CN2CCN(c3nc4cc(-c5ccccc5)sc4n4cccc34)CC2)cc1,–,–,–,–
0.603,0.0138,0.0347,0.0589,2.63,68,–,0.012,–,0.08,–,c1cc2c(N3CCNCC3)nc3ccsc3n2c1,–,35,–,0
2.57,10.2,0.355,0.0617,0.933,–,–,0.0603,–,–,–,c1cc2c(N3CCN(CC4CC4)CC3)nc3ccsc3n2c1,–,–,–,–
87.1,14.8,11.7,4.9,7.41,–,–,19.1,–,–,–,CN1CCN(c2nc3cc(-c4ccccc4)sc3n3cccc23)CC1,–,–,–,–
> 100,1380,214,> 100,> 100,–,–,> 100,–,–,–,FC(F)(F)c1cccc(N2CCN(c3nc4cc(-c5ccccc5)sc4n4cccc34)CC2)c1,–,–,–,–
> 100,40.7,15.5,7.76,17.4,–,–,0.126,–,–,–,C[N+]1(Cc2ccccc2)CCN(c2nc3ccsc3n3cccc23)CC1,–,–,–,–
